Results as given in US8697145B2, “Substances having body mass redistribution properties” (Horizon Science Pty. Ltd., priority 2005, dated 2014).

Columns and labels:
Sprague Dawley rats = assay: Body mass distribution of rats on high fat diet with tea treatments (DEXA); assay type: in vivo; conditions: at 11 and 18 weeks, vs water control
Text: Animals and treatments: Male Sprague Dawley rats (n=48) were purchased from the Animal Resource Centre (Canning Vale, WA) at 3 weeks of age. Animals were allowed to acclimate for 1 week on Purina rat chow and water. From 4 weeks of age, all animals were provided with a semi-synthetic, high fat diet (15% fat, Table 6) (Specialty Feeds, Glen Forrest, WA) and administered one of four fluid treatments: Green Tea, Black Tea, Epigallocatechin Gallate (EGCG) or water. Tea and tea extracts were given as 100% of their fluid intake. Rats were maintained on the high fat diet and tea treatment until week 29. Food and fluid intakes were measured daily and body weights recorded weekly.
Green and Black tea: Green and Black tea bags (Dilmah Natural Green Tea™ and Dilmah Black Tea™) were purchased from a local retail outlet. Ten tea bags (approximately 2 g tea leaves/bag) were steeped in 1 liter of boiling tap water in a covered container for 3 minutes. Tea bags were then expelled of excess tea and the tea preparations made up to a 2 liter volume with cold tap water. This approximated to 1 tea bag per 200 ml of water. […]
Dual Energy X-ray Absorptiometry (DEXA): Body composition was determined by dual energy x-ray absorptiometry using a Hologic QDR-4000/W Absorptiometer. […] Fat, lean and total mass was measured, along with the percentage fat ratio and bone mineral content. […]

rats = conditions: treated rats (Zorad et al. 1995); cited from earlier work
α-glucosidase = assay: α-Glucosidase inhibition assay; assay type: biochemical
Protocol: α-Glucosidase: Molasses powder sample was solubilized in water prior to use in this assay. Fucoidan was included as a positive control, and was also solubilized in water.
Glucosidase enzyme was solubilized in acetate buffer (50 mM, pH 4.5) at a concentration of 0.7 mg/mL. This provided a final concentration of 0.2 U/mL. To a 96-well plate, 50 μL of enzyme was added to each well. A corresponding set of wells was also included, in which acetate buffer was added instead of enzyme. Sample/controls were then added to the wells (5 μL), in triplicate, followed by the substrate 4-Nitrophenyl-α-D-glucopyranoside (final concentration 2 mM). The plate was covered, shaken and then incubated at 37° C. for 30 minutes. The reaction was stopped with the addition of 0.2 M Na2CO3 (100 μL/well). Absorbance was measured at 405 nm, using a Victor^2 plate reader.
The absorbance of the wells containing sample, substrate, and buffer were subtracted from the corresponding wells containing the glucosidase enzyme and the percent inhibition by the samples was calculated compared to the solvent controls.

For `O=C(O[C@@H]1Cc2c(O)cc(O)cc2O[C@@H]1c1cc(O)c(O)c(O)c1)c1cc(O)c(O)c(O)c1` [EGCG, (−)-epigallocatechin-3-gallate], the “grams of lean mass” value (Sprague Dawley rats) was “significantly higher”.
For `CCCCc1nc(Cl)c(CO)n1Cc1ccc(-c2ccccc2-c2nn[nH]n2)cc1` [losartan], the adipocyte size (rats) is given as “reduction”.
For Fucoidan, the “IC50 (α-glucosidase)” value (α-glucosidase) was 14 µg/mL, the “% Inhibition of α-glucosidase” value (α-glucosidase; 4.7 μg/mL) was 5.7 ± 3.1% and the “% Inhibition of α-glucosidase” value (α-glucosidase; 9.4 μg/mL) was 19.3 ± 2.7%. For the same molecule, the “% Inhibition of α-glucosidase” value (α-glucosidase; 18.8 μg/mL) was 73.5 ± 7.5% and the “% Inhibition of α-glucosidase” value (α-glucosidase; 37.5 μg/mL) was 97.4 ± 5.9%.
